“Also recorded” adds a separate entry of the source. Read-outs that look alike come from different tables or passages of the source.
How the values were obtained:
[1] = system: H3K27M DIPG cell lines (H3.3 K27M SF8628, H3.3 K27M DIPG-007, and H3.1 K27M SU-DIPGIV); test: Inhibition of DIPG cell growth (cytotoxic activity), 72 hours treatment; format: cell-based; details: Homo sapiens; three H3K27M mutant DIPG cell lines (SF8628, DIPG-007, SU-DIPGIV), treated for 72 hours
Procedure: Specifically, UR-8 and UR-17 induced dose dependent inhibition of the growth of K27M DIPG cells—To determine the potential of the UR-analog series, UR-8 and UR-17 were selected for initial studies on DIPG cell growth. Thus, three H3K27M DIPG cell lines (H3.3 K27M SF8628, H3.3 K27M DIPG-007, and H3.1 K27M SU-DIPGIV) were treated with GSK-J4 (R&D System), UR-8, and UR-17 for 72 hours.

[2] = Biodistribution in brainstem and serum of mice, HPLC analysis of tissue extracts; format: in vivo; details: for concentration at 3 h: ip, 3 hours after intraperitoneal injection
Source text: Study of JMJD3 demethylase inhibitors. […] Because of its promising anti-tumor activities, GSK-J4 has been used to treat many kinds of tumors in preclinical models including T-cell acute lymphoblastic leukemia, acute myeloid leukemia, diffuse large B-cell lymphoma, neuroblastoma, prostate cancer, gastric cancer, and DIPG. The major challenge of GSK-J4 in clinical development is that GSK-J4 is a prodrug and is rapidly converted to the active drug […] in vivo (FIG. 1). […] The development of novel compounds such as UR-8 offered desirable properties including good cellular and brain transport which is essential to improving in vivo efficacy.
UR-8 was administered by intraperitoneal injection to mice that were euthanized at 3 hours following UR-8 administration. Their brains were immediately resected, the brainstem was dissected from the surrounding brain, and the serum was collected by cardiac puncture. […] GSK-J1 was highly detected in either serum and brainstem in the mice treated with GSK-J4 in compared to that of the mice treated with UR-8. GSK-J4 was not detected in any specimens from mice treated with GSK-J4.

[3] = system: SF8628 intracranial (brainstem) tumor; test: In vivo anti-tumor activity in patient-derived K27M DIPG xenografted mice; details: for Survival, log-rank test P, control vs. compound: vs vehicle control (DMSO)
Procedure: Mice with SF8628 intracranial (brainstem) tumor were randomized to four treatment groups: vehicle control (DMSO, n=7), GSK-J4 (100 mg/kg/day for 10 consecutive days, n=8), UR-8 (100 mg/kg/day for 10 consecutive days, n=8), and UR-17 (100 mg/kg/day for 10 consecutive days, n=8). FIG. 3 (A) Upper: Growth plots for intracranial tumors using tumor bioluminescence values. Lower: Corresponding tumor bioluminescence intensity overlay images for representative vehicle-treated, GSK-J4, UR-17, and UR-8-treated mice. FIG. 3 (B) Corresponding survival plots for each experiment. Statistical analysis was performed using a log-rank test: control vs. GSK-J4, **P=0.0094; control vs. UR-8, ***P=0.0002; control vs. UR-17, ***P=0.0008; GSK-J4 vs. UR-8, ***P=0.0008; UR-8 vs. UR-17, *P=0.0197. FIG. 3 (c) Effects of UR-8 on cell proliferation.
UR-8 inhibited tumor growth and prolonged survival of mice bearing human DIPG xenografts—Based on the biological effects of UR-analogs in vitro, it was hypothesized that UR-analogs would suppress tumor growth and increase survival in mice with orthotopic (brainstem) human DIPG xenografts. To determine in vivo anti-tumor activity of UR-analogs, the mice were implanted with SF8628 DIPG cells in the brainstem and were treated with 100 mg/kg of GSK-J4, UR-8, and UR-17 for 10 consecutive days.

[4] = SF8628 brainstem xenograft, 100 mg/kg for 10 consecutive days
[5] = SF8628 brainstem xenograft, 100 mg/kg/day for 10 consecutive days

Row | SMILES | IC50 [1] [µM] | Brain penetration ratio (UR-8) ([2]; brainstem concentration as % of serum concentration, analyte UR-8, UR-8 treated mice) [%] | Kp at 3 h ([2]; mouse, brainstem relative to serum, intraperitoneal, brainstem concentration as % of serum concentration, analyte UR-8, UR-8 treated mice, read-out: Brain penetration ratio (UR-8)) | concentration at 3 h ([2]; mouse, brainstem, UR-8 treated mice, analyte UR-8, read-out: UR-8 concentration, Brainstem) [ng/mL] | concentration at 3 h ([2]; mouse, serum, UR-8 treated mice, analyte UR-8, read-out: UR-8 concentration, Serum) [ng/mL] | Survival benefit of treated mice [3, 4] | Survival, log-rank test P, GSK-J4 vs. UR-8 [3, 5] | Survival, log-rank test P, UR-8 vs. UR-17 [3, 5] | Survival, log-rank test P, control vs. compound [3, 5] | Therapeutic benefit compared with the other compounds ([3]; intracranial (brainstem) human DIPG xenografted mice, comparison with GSK-J4 / UR-17) | GSK-J1 concentration, Brainstem ([2]; GSK-J4 treated mice, analyte GSK-J1, 3 hours after administration) [ng/mL] | GSK-J1 concentration, Serum ([2]; GSK-J4 treated mice, analyte GSK-J1, 3 hours after administration, intraperitoneal) [ng/mL] | Brain penetration ratio (GSK-J1) ([2]; brainstem concentration as % of serum concentration, analyte GSK-J1, GSK-J4 treated mice) [%] | Species found in brainstem tissue after GSK-J4 treatment ([2]; mice euthanized at 3 hours after completion of GSK-J4 treatment) | GSK-J4 detection in specimens from mice treated with GSK-J4 ([2]; serum and brainstem, HPLC) | Tumor growth rate (bioluminescence monitoring) [3, 4]
1 | OCCCNc1cc(N2CCc3ccccc3CC2)nc(-c2ccccn2)n1 [UR-8, 3-((2-(pyridin-2-yl)-6-(1,2,4,5-tetrahydro-3H-benzo[d]azepin-3-yl)pyrimidin-4-yl)amino)propan-1-ol] | 4 to 6 | 8.77 ± 2.37 | 0.0877 ± 0.0237 | 410 ± 244 | 4460 ± 1580 | significant benefit | 0.0008 | 0.0197 | 0.0002 | outperforming either GSK-J4 or UR-17; also recorded: greater anti-tumor activity and survival benefit than that obtained by GSK-J4 treatment |  |  |  |  |  | 
2 | CCOC(=O)CCNc1cc(N2CCc3ccccc3CC2)nc(-c2ccccn2)n1 [GSK-J4] |  |  |  |  |  | substantial survival benefit |  |  | 0.0094 |  | 141.5 ± 50.2 | 31250 ± 18879 | 0.61 ± 0.53 | only GSK-J1 | not detected | reduced tumor growth rate

Source: patent publication US12709608B2, “4-amino pyrimidine compounds for the treatment of cancer” (University of Rochester, priority 2021, dated 2026)
